Assay results as given in patent US20150045610A1, “METHOD OF MODIFYING SPERMATOGENESIS, SPERMIOGENESIS AND/OR FERTILITY IN MAMMALS” (Monell Chemical Senses Center, priority 2012, published 2015).

Target: T1, mouse sweet receptor (mT1R2/mT1R3) (Mus musculus, UniProt Q925D8)
T1 construct: expressed in transfected cells
T1 sequence (Q925D8 21-858): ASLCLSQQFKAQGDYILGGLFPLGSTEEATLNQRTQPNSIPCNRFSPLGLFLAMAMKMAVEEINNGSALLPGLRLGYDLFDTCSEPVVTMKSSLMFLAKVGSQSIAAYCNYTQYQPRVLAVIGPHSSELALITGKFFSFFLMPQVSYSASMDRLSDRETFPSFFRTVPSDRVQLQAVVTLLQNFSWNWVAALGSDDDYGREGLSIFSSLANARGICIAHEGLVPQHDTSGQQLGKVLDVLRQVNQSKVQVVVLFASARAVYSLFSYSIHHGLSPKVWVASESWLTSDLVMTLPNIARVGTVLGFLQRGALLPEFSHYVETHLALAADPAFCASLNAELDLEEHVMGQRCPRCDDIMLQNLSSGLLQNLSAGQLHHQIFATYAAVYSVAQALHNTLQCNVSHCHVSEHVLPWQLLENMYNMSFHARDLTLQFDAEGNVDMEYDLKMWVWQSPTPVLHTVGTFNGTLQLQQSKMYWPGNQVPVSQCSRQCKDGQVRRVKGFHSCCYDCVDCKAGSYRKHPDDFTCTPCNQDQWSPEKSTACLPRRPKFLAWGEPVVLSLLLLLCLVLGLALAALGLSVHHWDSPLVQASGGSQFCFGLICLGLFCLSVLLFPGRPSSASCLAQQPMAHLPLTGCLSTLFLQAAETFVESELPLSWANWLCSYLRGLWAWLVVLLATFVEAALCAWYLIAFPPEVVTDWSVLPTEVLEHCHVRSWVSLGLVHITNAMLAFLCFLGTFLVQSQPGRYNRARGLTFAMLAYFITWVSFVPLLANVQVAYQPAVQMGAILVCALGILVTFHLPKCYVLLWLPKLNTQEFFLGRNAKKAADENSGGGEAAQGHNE
T1 sequence (Q925I4 20-843 partner): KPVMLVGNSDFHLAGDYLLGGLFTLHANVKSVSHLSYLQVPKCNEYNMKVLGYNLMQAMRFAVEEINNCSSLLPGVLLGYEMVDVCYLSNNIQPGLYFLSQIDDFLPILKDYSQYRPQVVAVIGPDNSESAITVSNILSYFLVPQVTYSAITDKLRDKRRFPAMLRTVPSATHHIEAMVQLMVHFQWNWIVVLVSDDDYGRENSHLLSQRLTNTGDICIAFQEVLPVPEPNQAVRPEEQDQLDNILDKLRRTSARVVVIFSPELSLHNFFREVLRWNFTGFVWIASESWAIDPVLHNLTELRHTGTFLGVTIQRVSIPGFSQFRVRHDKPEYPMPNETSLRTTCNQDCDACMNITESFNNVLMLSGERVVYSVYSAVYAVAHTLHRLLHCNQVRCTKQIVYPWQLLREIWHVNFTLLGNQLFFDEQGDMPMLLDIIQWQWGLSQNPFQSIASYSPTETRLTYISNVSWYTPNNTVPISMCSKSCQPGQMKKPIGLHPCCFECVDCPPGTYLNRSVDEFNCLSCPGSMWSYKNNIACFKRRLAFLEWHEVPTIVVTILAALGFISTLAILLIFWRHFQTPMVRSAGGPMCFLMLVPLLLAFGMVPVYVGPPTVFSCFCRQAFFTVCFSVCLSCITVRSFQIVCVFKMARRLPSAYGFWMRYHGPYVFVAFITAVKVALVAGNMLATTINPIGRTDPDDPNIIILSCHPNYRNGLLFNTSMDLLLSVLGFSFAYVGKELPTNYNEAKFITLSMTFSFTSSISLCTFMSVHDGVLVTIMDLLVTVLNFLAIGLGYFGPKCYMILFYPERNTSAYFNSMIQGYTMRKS
Test: sweet receptor inhibition assay, mouse receptor
Assay type: cell-based
Description: The human T1R3 transmembrane domain determines sensitivity to lactisole, phenoxy herbicides, and fibrates. Inhibition of the receptor's response to sucralose occurred only in the presence of the transmembrane domain of human T1R3. […] Chimeric receptors of T1R3 contained the extracellular portion of human or mouse receptor and the transmembrane domain and C-terminal domain from mouse or human receptor: mh indicates the presence of the mouse extracellular domain and human transmembrane domain; hm indicates the presence of the human extracellular domain and mouse transmembrane domain.

Compound: CC(C)(Oc1ccc(Cl)cc1)C(=O)O [clofibric acid]
- effect on the mouse receptor: no effect
